The assay concerns Acinetobacter baumannii ATCC17961. Put plainly: Antimicrobial susceptibility testing: 90% growth inhibitory concentration (IC90) determination in Iso-Sensitest broth, OD600 growth. It counts as cell-based. In outline: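 Each strain, at about 5×10^(5) CFU/ml, was incubated with twofold dilutions of compound at 35±2° C for 16 h, and IC90 was calculated from kinetic optical density measured at 600 nm during logarithmic growth.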

Setting [1] is: Acinetobacter baumannii, ATCC17961, 16 h, read-out: A. baumannii ATCC 17961 IC90 (uM), strain ATCC 17961, OD600 growth over 16 h.
The mark [2] stands for this setting: Acinetobacter baumannii, ATCC17961, 16 h, strain ATCC 17961, OD600 growth over 16 h, read-out: A. baumannii ATCC 17961 IC90.
[3] abbreviates: strain ATCC 17961, OD600 growth over 16 h, read-out: A. baumannii ATCC 17961 IC90.

Structures can show the parent of a compound that is named as a salt. Where two headings read alike, the source gives them in different places.

Take `C=CCn1cc(-c2cnc3c(Nc4ccc(C(=O)NCCOCCN)c(CC)c4)nccn23)c(C(F)(F)F)n1` [Example 272, N-[2-(2-aminoethoxy)ethyl]-2-ethyl-4-[[3-[1-prop-2-enyl-3-(trifluoromethyl)pyrazol-4-yl]imidazo[1,2-a]pyrazin-8-yl]amino]benzamide formate]: the IC90 under setting [1] came to 0.085 µM.
Turning to `O=C(c1ccc(Nc2nccn3c(-c4c[nH]nc4C(F)(F)F)cnc23)cc1Cl)N1CCN(C(=O)[C@H]2CCCN2)CC1` [Example 198, [2-chloro-4-[[3-[3-(trifluoromethyl)-1H-pyrazol-4-yl]imidazo[1,2-a]pyrazin-8-yl]amino]phenyl]-[4-[(2R)-pyrrolidine-2-carbonyl]piperazin-1-yl]methanone], the IC90 under setting [2] was found to be 0.216 µM.
Take `Cc1cc(Nc2nccn3c(-c4cn(CC#N)nc4C(F)(F)F)cnc23)ccc1C(=O)NCC(=O)N1CC(N)C1` [Example 751, N-[2-(3-aminoazetidin-1-yl)-2-oxo-ethyl]-4-[[3-[1-(cyanomethyl)-3-(trifluoromethyl)pyrazol-4-yl]imidazo[1,2-a]pyrazin-8-yl]amino]-2-methyl-benzamide formate]: the IC90 under setting [1] was 0.627 µM.
Regarding `CN(C)C(=O)c1ccc(Nc2nccn3c(-c4c[nH]nc4C(F)(F)F)cnc23)cc1Cl` [Example 402, 2-chloro-N,N-dimethyl-4-[[3-[3-(trifluoromethyl)-1H-pyrazol-4-yl]imidazo[1,2-a]pyrazin-8-yl]amino]benzamide], the IC90 under setting [2] stood at 0.384 µM.
Same read-out and setting: to `CCc1cc(Nc2nccn3c(-c4cn(CC(=O)O)nc4C(F)(F)F)cnc23)ccc1C(=O)NCCOCCN` [Example 271, 2-[4-[8-[4-[2-(2-aminoethoxy)ethylcarbamoyl]-3-ethylanilino]imidazo [1,2-a]pyrazin-3-yl]-3-(trifluoromethyl)pyrazol-1-yl]acetic acid] belongs 3.07 µM; to `CCc1cc(Nc2nccn3c(-c4cn(CC#N)nc4C(F)(F)F)cnc23)ccc1C(=O)NCC(=O)N1CCNCC1` [Example 499, 4-[[3-[1-(cyanomethyl)-3-(trifluoromethyl)pyrazol-4-yl]imidazo[1,2-a]pyrazin-8-yl]amino]-2-ethyl-N-(2-oxo-2-piperazin-1-yl-ethyl)benzamide formate], 0.218 µM.
Consider `CN(C)CCNC(=O)CNC(=O)c1ccc(Nc2nccn3c(-c4c[nH]nc4C(F)(F)F)cnc23)cc1Cl` [Example 165, 2-chloro-N-[2-[2-(dimethylamino)ethylamino]-2-oxoethyl]-4-[[3-[3-(trifluoromethyl)-1H-pyrazol-4-yl]imidazo[1,2-a]pyrazin-8-yl]amino]benzamide formate], for which, under setting [1], the IC90 came to 2.52 µM.
For the molecule `C#CCNCCCNC(=O)c1c(C)cc(Nc2nccn3c(-c4cn(CCF)nc4C(F)(F)F)cnc23)cc1F` [Example 74, 2-fluoro-4-[[3-[1-(2-fluoroethyl)-3-(trifluoromethyl)pyrazol-4-yl]imidazo[1,2-a]pyrazin-8-yl]amino]-6-methyl-N-[3-(prop-2-ynylamino)propyl] benzamide], the IC90 under setting [3] worked out at 0.781 µM.
In the case of `CCc1cc(Nc2nccn3c(-c4cn(CCF)nc4C(F)(F)F)cnc23)ccc1C(=O)NCCOCCN` [Example 301, N-[2-(2-aminoethoxy)ethyl]-2-ethyl-4-[[3-[1-(2-fluoroethyl)-3-(trifluoromethyl)pyrazol-4-yl]imidazo[1,2-a]pyrazin-8-yl]amino]benzamide formate], under setting [1], the IC90 turned out to be 0.164 µM.
Still for that read-out and setting: to `Cc1cc(Nc2nccn3c(-c4c[nH]nc4C(F)(F)F)cnc23)ccc1C(=O)N1CCN(C(=O)NCCCN)CC1` [Example 417, N-(3-aminopropyl)-4-[2-methyl-4-[[3-[3-(trifluoromethyl)-1H-pyrazol-4-yl]imidazo[1,2-a]pyrazin-8-yl]amino]benzoyl]piperazine-1-carboxamide formate] belongs 0.506 µM.
For `C#CCn1cc(-c2cnc3c(Nc4cc(C)c(C(=O)N5CCNCC5)c(F)c4)nccn23)c(C(F)(F)F)n1` [Example 67, [2-fluoro-6-methyl-4-[[3-[1-prop-2-ynyl-3-(trifluoromethyl)pyrazol-4-yl]imidazo[1,2-a]pyrazin-8-yl]amino]phenyl]-piperazin-1-ylmethanone], under setting [2], the IC90 came to 0.413 µM.
The same measure, in the same setting: to `CCc1cc(Nc2nccn3c(-c4c[nH]nc4C(F)(F)F)cnc23)ccc1C(=O)NCCCNC(=O)[C@H](C)NC(=O)C(F)(F)F` [Example 759, (S)-2-ethyl-N-(3-(2-(2,2,2-trifluoroacetamido)propanamido)propyl)-4-((3-(3-(trifluoromethyl)-1H-pyrazol-4-yl)imidazo[1,2-a]pyrazin-8-yl)amino) benzamide] belongs 0.693 µM; to `CCc1cc(Nc2nccn3c(-c4cn(CC#N)nc4C(F)(F)F)cnc23)ccc1C(=O)NCCNC(=O)[C@H]1CC[C@@H](N)C1` [Example 496, N-(2-((1S,3R)-3-aminocyclopentane-1-carboxamido)ethyl)-4-((3-(1-(cyanomethyl)-3-(trifluoromethyl)-1H-pyrazol-4-yl)imidazo[1,2-a]pyrazin-8-yl)amino)-2-ethylbenzamide formate], 0.173 µM; to `CCc1cc(Nc2nccn3c(-c4c[nH]nc4C(F)(F)F)cnc23)ccc1C(=O)N1CCN(C(=O)C2(O)CCNCC2)CC1` [Example 355, [2-ethyl-4-[[3-[3-(trifluoromethyl)-1H-pyrazol-4-yl]imidazo[1,2-a]pyrazin-8-yl]amino]phenyl]-[4-(4-hydroxypiperidine-4-carbonyl)piperazin-1-yl]methanone hydrochloride], 1.3 µM.
Same read-out and setting: in the case of `Cc1cc(Nc2nccn3c(-c4c[nH]nc4C(F)(F)F)cnc23)ccc1C(=O)N1CCN(C(=O)NCC2CNC2)CC1` [Example 410, N-(azetidin-3-ylmethyl)-4-[2-methyl-4-[[3-[3-(trifluoromethyl)-1H-pyrazol-4-yl]imidazo[1,2-a]pyrazin-8-yl]amino]benzoyl]piperazine-1-carboxamide] it was 1.42 µM.
Take `Cc1cc(Nc2nccn3c(-c4c[nH]nc4C(F)(F)F)cnc23)ccc1C(=O)N1CCN(C(=O)[C@@H]2CCNC[C@H]2O)CC1` [Example 464, formic acid; [4-[(3S,4R)-3-hydroxypiperidine-4-carbonyl]piperazin-1-yl]-[2-methyl-4-[[3-[3-(trifluoromethyl)-1H-pyrazol-4-yl]imidazo[1,2-a]pyrazin-8-yl]amino]phenyl]methanone]: the IC90 under setting [1] stood at 1.26 µM.
Same read-out and setting: to `Cc1cc(Nc2nccn3c(-c4cn(CC#N)nc4C(F)(F)F)cnc23)ccc1C(=O)NCC(=O)N1CC[C@H](N)C1` [Example 739, N-[2-[(3S)-3-aminopyrrolidin-1-yl]-2-oxo-ethyl]-4-[[3-[1-(cyanomethyl)-3-(trifluoromethyl)pyrazol-4-yl]imidazo[1,2-a]pyrazin-8-yl]amino]-2-methyl-benzamide formate] belongs 0.527 µM.
As for `CCc1cc(Nc2nccn3c(-c4cn(CC#N)nc4C(F)(F)F)cnc23)ccc1C(=O)NCCNC(=O)[C@H]1C[C@H](N)C1` [Example 487, N-(2-((1r,3r)-3-aminocyclobutane-1-carboxamido)ethyl)-4-((3-(1-(cyanomethyl)-3-(trifluoromethyl)-1H-pyrazol-4-yl)imidazo[1,2-a]pyrazin-8-yl)amino)-2-ethylbenzamide formate], the IC90 under setting [2] was found to be 0.171 µM.
With `CCc1cc(Nc2nccn3c(-c4cn(CC(F)F)nc4C(F)(F)F)cnc23)ccc1C(=O)NCCCNC(=O)[C@H](C)N` [Example 628, (S)-N-(3-(2-aminopropanamido)propyl)-4-((3-(1-(2,2-difluoroethyl)-3-(trifluoromethyl)-1H-pyrazol-4-yl)imidazo[1,2-a]pyrazin-8-yl)amino)-2-ethylbenzamide formate], the concentration for an effect of 90% (IC90) under setting [1] is 0.195 µM.
Still for that read-out and setting: in the case of `COCCn1cc(-c2cnc3c(Nc4ccc(C(=O)N5CCN(C(=O)CCN)CC5)c(Cl)c4)nccn23)c(C(F)(F)F)n1` [Example 294, 3-amino-1-[4-[2-chloro-4-[[3-[1-(2-methoxyethyl)-3-(trifluoromethyl)pyrazol-4-yl]imidazo[1,2-a]pyrazin-8-yl]amino]benzoyl]piperazin-1-yl]propan-1-one formate] it was 0.457 µM.
As to `NCCNC(=O)CNCCNC(=O)c1ccc(Nc2nccn3c(-c4cn(CC(F)F)nc4C(F)(F)F)cnc23)cc1Cl` [Example 820, N-(2-((2-((2-aminoethyl)amino)-2-oxoethyl)amino)ethyl)-2-chloro-4-(3-(1-(2,2-difluoroethyl)-3-(trifluoromethyl)-1H-pyrazol-4-yl)imidazo[1,2-a]pyrazin-8-yl)amino) benzamide formate], the IC90 under setting [2] came out at 0.15 µM.
Same read-out and setting: in the case of `CCc1cc(Nc2nccn3c(-c4cn(CC#N)nc4C(F)(F)F)cnc23)ccc1C(=O)N[C@H](C)CN` [Example 109, N-[(2R)-1-aminopropan-2-yl]-4-[[3-[1-(cyanomethyl)-3-(trifluoromethyl)pyrazol-4-yl]imidazo[1,2-a]pyrazin-8-yl]amino]-2-ethylbenzamide] it was 0.333 µM.
In the case of `NCCNC(=O)CN1CCN(C(=O)c2ccc(Nc3nccn4c(-c5cn(CC(F)F)nc5C(F)(F)F)cnc34)cc2Cl)CC1` [Example 598, N-(2-aminoethyl)-2-(4-(2-chloro-4-((3-(1-(2,2-difluoroethyl)-3-(trifluoromethyl)-1H-pyrazol-4-yl)imidazo[1,2-a]pyrazin-8-yl)amino)benzoyl)piperazin-1-yl)acetamide formate], the IC90 under setting [1] was 0.359 µM.
With `O=C(NC1CCN(C(=O)c2ccc(Nc3nccn4c(-c5c[nH]nc5C(F)(F)F)cnc34)cc2Cl)CC1)N[C@H]1CCNC1` [Example 144, 1-[1-[2-choro-4-[[3-[3-(trifluoromethyl)-1H-pyrazol-4-yl]imidazo[1,2-a]pyrazin-8-yl]amino]benzoyl]piperidin-4-yl]-3-[(3S)-pyrrolidin-3-yl]urea], the IC90 under setting [3] is 0.335 µM.

Usually IC90 stands for the concentration needed for an effect of 90%.

Source of the values: patent US20230203043A1, “NOVEL IMIDAZOPYRAZINE DERIVATIVES” (Hoffmann-La Roche Inc., priority 2020, published 2023).
